Values quoted from earlier work as cited in article PMC12840679, “Rational Design, Synthesis and Pharmacological Evaluation of Chalcones as Dual-Acting Compounds—Histamine H3 Receptor Ligands and MAO-B Inhibitors” (International Journal of Molecular Sciences, 2026).
pKi: −log10 of the molar value.

Molecular target: hH3R (Homo sapiens, UniProt Q9Y5N1)
Settings: HEK293 cells

Chain of hH3R (Q9Y5N1 whole entry): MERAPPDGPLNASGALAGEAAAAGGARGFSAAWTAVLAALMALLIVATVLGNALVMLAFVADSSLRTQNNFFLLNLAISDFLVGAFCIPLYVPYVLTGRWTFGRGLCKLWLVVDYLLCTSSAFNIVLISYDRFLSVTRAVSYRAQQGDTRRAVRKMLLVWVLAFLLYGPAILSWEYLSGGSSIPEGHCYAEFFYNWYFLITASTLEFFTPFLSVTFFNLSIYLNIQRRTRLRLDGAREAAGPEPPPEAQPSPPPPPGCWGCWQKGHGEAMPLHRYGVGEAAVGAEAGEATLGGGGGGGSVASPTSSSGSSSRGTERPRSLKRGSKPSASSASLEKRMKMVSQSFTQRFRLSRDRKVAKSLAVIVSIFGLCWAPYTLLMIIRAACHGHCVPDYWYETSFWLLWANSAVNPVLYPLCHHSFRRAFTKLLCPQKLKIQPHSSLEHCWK

Question: With `CC(C)(C)c1ccc(OCCCN2CCCCC2)cc1` [DL76] as the compound, how does the pKi read?
Answer: 7.24
